From publication PMC9720979, “Activation of Piezo1 downregulates renin in juxtaglomerular cells and contributes to blood pressure homeostasis” (Cell & Bioscience, 2022)
pEC50: −log10 of the molar value.

Target: T1, Piezo1 (Mus musculus, UniProt E2JF22)
T1 construct: endogenous full-length channel in mouse juxtaglomerular cell line As4.1 (ATCC CRL2193); homotrimer
Assay: Fluo-4 calcium imaging in As4.[…] cells, Hill fit
Format: cell-based
Details: agonist; native As4.1 cells, HBSS with extracellular Ca2+; no added modulator

T1 sequence (E2JF22 whole entry): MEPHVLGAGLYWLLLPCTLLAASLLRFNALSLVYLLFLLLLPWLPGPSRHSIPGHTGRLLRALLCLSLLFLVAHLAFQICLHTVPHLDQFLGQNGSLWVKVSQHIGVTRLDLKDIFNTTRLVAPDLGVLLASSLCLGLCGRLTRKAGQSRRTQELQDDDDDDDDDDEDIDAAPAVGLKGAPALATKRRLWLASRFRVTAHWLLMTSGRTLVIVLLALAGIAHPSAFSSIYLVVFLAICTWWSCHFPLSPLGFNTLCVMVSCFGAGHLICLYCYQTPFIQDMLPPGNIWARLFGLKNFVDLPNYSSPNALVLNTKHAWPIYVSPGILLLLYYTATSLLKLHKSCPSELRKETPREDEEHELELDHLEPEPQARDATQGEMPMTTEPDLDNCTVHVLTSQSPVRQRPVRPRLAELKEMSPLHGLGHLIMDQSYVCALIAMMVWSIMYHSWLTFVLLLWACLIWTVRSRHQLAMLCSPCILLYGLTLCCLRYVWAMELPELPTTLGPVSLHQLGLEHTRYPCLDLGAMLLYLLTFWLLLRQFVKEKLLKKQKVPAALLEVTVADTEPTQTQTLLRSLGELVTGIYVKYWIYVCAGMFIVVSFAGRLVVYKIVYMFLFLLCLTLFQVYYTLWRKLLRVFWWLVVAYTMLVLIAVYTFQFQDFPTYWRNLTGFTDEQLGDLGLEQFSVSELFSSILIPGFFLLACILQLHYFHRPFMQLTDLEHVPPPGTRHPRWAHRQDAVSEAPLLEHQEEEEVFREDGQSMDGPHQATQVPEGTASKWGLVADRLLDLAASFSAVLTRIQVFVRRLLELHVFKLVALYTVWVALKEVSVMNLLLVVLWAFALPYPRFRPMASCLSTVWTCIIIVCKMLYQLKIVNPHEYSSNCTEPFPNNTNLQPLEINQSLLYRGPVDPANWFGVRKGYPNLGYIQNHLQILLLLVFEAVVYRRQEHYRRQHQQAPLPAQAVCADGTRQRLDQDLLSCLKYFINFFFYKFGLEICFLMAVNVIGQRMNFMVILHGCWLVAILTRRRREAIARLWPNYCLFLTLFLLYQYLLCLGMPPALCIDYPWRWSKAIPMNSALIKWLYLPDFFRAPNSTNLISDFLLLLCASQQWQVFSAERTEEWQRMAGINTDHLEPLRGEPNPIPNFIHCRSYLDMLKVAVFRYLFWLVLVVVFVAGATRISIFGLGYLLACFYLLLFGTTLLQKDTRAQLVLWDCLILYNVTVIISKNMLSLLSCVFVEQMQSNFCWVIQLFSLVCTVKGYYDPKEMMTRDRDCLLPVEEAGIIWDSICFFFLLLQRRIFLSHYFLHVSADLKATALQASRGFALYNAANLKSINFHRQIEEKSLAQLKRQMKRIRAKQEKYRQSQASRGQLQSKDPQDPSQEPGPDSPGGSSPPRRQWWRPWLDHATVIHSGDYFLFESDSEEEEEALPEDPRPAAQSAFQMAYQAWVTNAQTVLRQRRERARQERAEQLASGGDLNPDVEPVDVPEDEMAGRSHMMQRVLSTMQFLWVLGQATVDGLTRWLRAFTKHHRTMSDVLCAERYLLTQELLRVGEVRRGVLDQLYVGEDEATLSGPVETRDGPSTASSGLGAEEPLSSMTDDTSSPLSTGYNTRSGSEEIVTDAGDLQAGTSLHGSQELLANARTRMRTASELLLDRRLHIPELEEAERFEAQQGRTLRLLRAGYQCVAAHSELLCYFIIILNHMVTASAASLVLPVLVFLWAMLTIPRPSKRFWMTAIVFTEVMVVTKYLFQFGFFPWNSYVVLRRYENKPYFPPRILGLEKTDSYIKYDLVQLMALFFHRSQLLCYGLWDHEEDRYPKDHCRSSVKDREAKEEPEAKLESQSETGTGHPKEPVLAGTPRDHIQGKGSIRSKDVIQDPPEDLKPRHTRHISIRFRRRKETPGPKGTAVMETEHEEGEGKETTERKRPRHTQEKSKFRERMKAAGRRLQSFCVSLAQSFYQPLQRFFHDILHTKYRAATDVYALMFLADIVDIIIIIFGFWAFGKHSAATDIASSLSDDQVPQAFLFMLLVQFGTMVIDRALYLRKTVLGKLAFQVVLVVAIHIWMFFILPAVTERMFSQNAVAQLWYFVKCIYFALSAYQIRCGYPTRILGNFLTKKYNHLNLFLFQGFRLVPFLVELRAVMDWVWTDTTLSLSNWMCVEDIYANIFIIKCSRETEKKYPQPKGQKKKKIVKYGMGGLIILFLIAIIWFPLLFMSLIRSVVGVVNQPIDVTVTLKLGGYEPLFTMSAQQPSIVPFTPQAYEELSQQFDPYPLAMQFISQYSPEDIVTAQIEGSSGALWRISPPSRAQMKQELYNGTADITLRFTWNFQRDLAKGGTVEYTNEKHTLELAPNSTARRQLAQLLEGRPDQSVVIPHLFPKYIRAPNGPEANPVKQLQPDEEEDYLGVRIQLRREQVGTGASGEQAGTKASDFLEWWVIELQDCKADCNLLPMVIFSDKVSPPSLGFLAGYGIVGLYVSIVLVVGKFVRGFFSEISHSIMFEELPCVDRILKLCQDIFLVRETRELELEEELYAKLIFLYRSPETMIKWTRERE

pEC50: 5.11
SMILES: Clc1cccc(Cl)c1CSc1nnc(-c2cnccn2)s1 [Yoda1]
